The Ki is the equilibrium dissociation constant of an inhibitor or competing ligand from its target. Lower therefore signals higher affinity.

Our source for the Ki values is BindingDB's records for doi:10.1021/jm00087a004 (Harvard Medical School, 1992).

A short description of experiment [1]: Binding affinity towards Opioid receptor delta 1.
A short description of experiment [2]: Binding affinity towards Opioid receptor delta 1. This is another data set of the same source.

SMILES strings stand for the structures.

With `CN1CCC2(c3cccc(O)c3)CCCC1[C@@H]2O` (stereo partly drawn), the inhibition constant Ki in experiment [1] is more than 0.5 µM. For `CN1CCC2(c3cccc(O)c3)CCCC1C2` (stereo not drawn), in experiment [2], the inhibition constant (Ki) is more than 0.5 µM. `CN1CCC2(c3cccc(O)c3)CCCC1[C@H]2O` (stereo partly drawn): the inhibition constant Ki in experiment [1] was determined as 0.42 µM.
